pEC50, pKi: −log10 of the molar value.
Experiments:
GR [1] = target: T1, GR (Homo sapiens, UniProt P04150); test: Transrepression Assay (GITAR), TNFα-β-lactamase reporter, U937 cells; type: cell-based; parameters: U937 cells contain an endogenous glucocorticoid receptor (GR); endogenous in cells; host or cells: U937 cells stably transfected with the TNF-alpha promoter beta-lactamase reporter; conditions: for pEC50: U937 cells, inflection point, read-out: Transrepression U937 Cells GITAR IP; for Emax: U-937, U937 cells, activity repressed by 100 nM dexamethasone set as 100%, read-out: Transrepression U937 Cells GITAR Emax
T1 sequence (P04150 1-777): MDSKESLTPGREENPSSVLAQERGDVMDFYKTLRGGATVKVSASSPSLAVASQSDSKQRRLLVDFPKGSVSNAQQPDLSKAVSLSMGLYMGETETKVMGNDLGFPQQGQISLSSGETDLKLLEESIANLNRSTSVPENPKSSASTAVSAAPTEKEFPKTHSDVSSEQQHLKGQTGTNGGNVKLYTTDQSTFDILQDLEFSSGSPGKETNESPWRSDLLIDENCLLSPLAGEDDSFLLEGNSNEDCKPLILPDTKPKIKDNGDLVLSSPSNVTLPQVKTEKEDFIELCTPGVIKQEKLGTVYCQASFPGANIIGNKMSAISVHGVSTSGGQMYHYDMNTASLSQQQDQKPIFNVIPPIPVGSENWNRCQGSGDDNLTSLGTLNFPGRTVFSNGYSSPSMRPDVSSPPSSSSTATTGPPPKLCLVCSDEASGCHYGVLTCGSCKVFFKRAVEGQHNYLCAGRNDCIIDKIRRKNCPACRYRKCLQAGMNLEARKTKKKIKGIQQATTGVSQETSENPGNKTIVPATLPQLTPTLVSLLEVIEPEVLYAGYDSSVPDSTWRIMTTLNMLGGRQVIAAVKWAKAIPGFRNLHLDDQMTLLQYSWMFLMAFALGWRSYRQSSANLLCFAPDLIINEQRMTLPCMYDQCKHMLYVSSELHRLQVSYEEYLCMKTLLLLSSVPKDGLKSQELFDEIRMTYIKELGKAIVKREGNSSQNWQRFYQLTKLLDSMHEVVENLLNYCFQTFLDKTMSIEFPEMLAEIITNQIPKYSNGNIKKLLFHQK
From the text: This assay assesses the ability of test compounds to control transcription from the TNFα-β-lactamase reporter gene in U937 cells, a human myelomonocytic leukemia cell line that naturally expresses the human GR. The assay measures compound dependent-repression of the TNFa promoter linked to a reporter gene.
The human U937 cells that had been stablely transfected with the TNF-α promoter driving […] are used for this assay. U937 cells contain an endogenous glucocorticoid receptor (GR). […] 50,000 cells/well are plated in 96 well black-walled plates the day of assay. Test compounds are added 10 μL/well, and cells are incubated at 37° C. for 30˜45 min. For assaying compounds, first dilute 1:10 in DMSO to make 1 mM, then further dilute 1:100 in medium to make 10× stock prior to adding to the cells. Add 50 ng/ml PMA (Sigma, cat#P8139) 10 μL/well to a final concentration 5 ng/ml, and 1 μg/ml LPS (Sigma, cat#L4130) 10 μL/well to a final concentration 100 ng/ml. Incubate cells at 37° C. overnight for ˜18 hr. PMA is stored frozen as 100 μg/ml stock in DMSO. Dilute 1:10 in DMSO for a working stock of […] and store at −20 C. For assaying, dilute the 10 μg/ml working stock 1:200 in medium to make a 10× solution (50 ng/ml). Store frozen LPS at 1 mg/ml in PBS, dilute 1:1000 in medium to make 10× (1 μg/ml) for the assay. Add 6× loading buffer (CCF2-AM) 20 μL/well, and incubate at room temperature for 70˜90 min. […] The activity repressed by 100 nM dexamethasone alone is set as 100% activity.

GR [2] = target: T1, GR; test: GR Ligand Binding Assay (GR BIND), HeLa cell lysate, 3H-DEX; parameters: endogenous in cells; host or cells: HeLa (ATCC) cell lysate supernatant; conditions: HeLa cell lysate, 3H-DEX; read-out: GR BIND Ki
Method: Binding Buffer: TEGM (10 mM Tris-HCl, 1 mM EDTA, 10% glycerol, 1 mM beta-mecaptoethanol, 10 mM Sodium Molybdate, pH 7.2)
Phenol red-free Trypsin-EDTA is diluted in the same PBS 1:10. The cell layers are rinsed with 1× Trypsin, extra Trypsin is poured out, and the cell layers are incubated at 37° C. for ˜2 min. The flask is tapped and checked for signs of cell detachment. Once the cells begin to slide off the flask, the complete media is added. The cells are counted at this point, then diluted to the appropriate concentration and split into flasks or dishes for further culturing (Usually 1:3 to 1:6 dilution).
The cell pellet is washed twice with TEGM (10 mM Tris-HCl, 1 mM EDTA, 10% glycerol, 1 mM beta-mercaptoethanol, 10 mM Sodium Molybdate, pH 7.2). […] The cell suspension is snap frozen in liquid nitrogen or ethanol/dry ice bath and transferred to −80° C. freezer on dry ice. Before setting up the binding assay, the frozen samples are left on ice-water to just thaw (˜1 hr). Then the samples are centrifuged at 12,500 g to 20,000 g for 30 min at 4° C. The supernatant is used to set-up assay right away. If using 50 μL of supernatant, the test compound can be prepared in 50 μL of the TEGM buffer.
1×TEGM buffer is prepared, and the isotope-containing assay mixture is prepared in the following order: EtOH (2% final concentration in reaction), 3H-DEX (Amersham Biosciences) and 1×TEGM. [e.g. For 100 samples, 200 μL (100×2) of EtOH+4.25 μL of 1:10 3H-Dex stock+2300 μL (100×23) 1×TEGM]. The compound is serially diluted, e.g., if starting final conc. is 1 μM, and the compound is in 25 μL of solution, for duplicate samples, 75 μL of 4×1 μM solution is made and 3 μL of 100 μM is added to 72 μL of buffer, and 1:5 serial dilution.
25 μL of 3H-DEX (6 nM) trace and 25 μl, compound solution are first mixed together, followed by addition of 50 μL receptor solution. The reaction is gently mixed, spun briefly at about 200 rpm and incubated at 4° C. overnight. 100 μL of 50% HAP slurry is prepared and added to the incubated reaction which is then vortexed and incubated on ice for 5 to 10 minutes. The reaction mixture is vortexed twice more to resuspend HAP while incubating reaction. The samples in 96-well format are then washed in wash buffer using The FilterMate™ Universal Harvester plate washer (Packard). The washing process transfers HAP pellet containing ligand-bound expressed receptor to Unifilter-96 GF/B filter plate (Packard). The HAP pellet on the filter plate is incubated with 50 μL of MICROSCINT (Packard) scintillint for 30 minutes before being counted on the TopCount microscintillation counter (Packard). IC50s are calculated using DEX as a reference.

SMILES	pEC50 (GR [1])	Emax (GR [1])	pKi (GR [2])
C[C@]12Cc3cnn(-c4ccc(F)cc4)c3C=C1CC[C@@]2(O)CC(O)c1cc(C#N)ccn1 (stereo partly drawn) [Example 9, 2-{2-[(4αS,5R)-1-(4-fluorophenyl)-5-hydroxy-4α-methyl-1,4,4α,5,6,7-hexahydrocyclopenta[f]indazol-5-yl]-1-hydroxyethyl}pyridine-4-carbonitrile]	7.32	74.9%	8.68
Cc1ccnc(C(O)C[C@]2(O)CCC3=Cc4c(cnn4-c4ccc(F)cc4)C[C@@]32C)c1 (stereo partly drawn) [Example 11, (4αS,5R)-1-(4-fluorophenyl)-5-[2-hydroxy-2-(4-methylpyridin-2-yl)ethyl]-4α-methyl-1,4,4α,5,6,7-hexahydrocyclopenta[f]indazol-5-ol]	7.32	69.1%	8.41
